For 38 compounds, IC50 results are on record in patent US20240208968A1, “ALPHA V BETA 6 AND ALPHA V BETA 1 INTEGRIN INHIBITORS AND USES THEREOF” (DiCE Molecules SV, Inc., priority 2021, published 2024).

Molecules are shown by their SMILES. Structures can show the parent of a compound that is named as a salt.

For one assay, the target named is αvβ1 (Homo sapiens, UniProt P05556+P06756). Nature of the assay: Solid Phase Integrin αvβ1 Assay. Format: binding. The procedure, abridged: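 Compound competes for αvβ1 binding to immobilized TGFb1-LAP (1 µg/mL coat) in Mn2+ (1 mM MnCl2), 2% BSA binding buffer over 90 min at room temperature, integrin added at 0.2 µg/mL. Read-out: streptavidin-HRP/TMB; IC50 from Levenberg-Marquardt four-parameter fit.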

For the next assay, the target named is αvβ6 (Homo sapiens, UniProt P06756+P18564). Nature of the assay: Solid Phase Integrin αvβ6 Assay. In kind it is binding. The gist of the method:
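Inhibition of αvβ6 binding to immobilized recombinant TGFb1-LAP (1 μg/mL coating), 1 h at room temperature with 1 mM MnCl2 in BSA/TBST buffer, integrin diluted to 0.2 μg/mL before addition. Streptavidin-HRP/TMB read-out; four-parameter logistic fitting gave IC50.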

Chain of αvβ1 (P06756 31-992 limits assumed): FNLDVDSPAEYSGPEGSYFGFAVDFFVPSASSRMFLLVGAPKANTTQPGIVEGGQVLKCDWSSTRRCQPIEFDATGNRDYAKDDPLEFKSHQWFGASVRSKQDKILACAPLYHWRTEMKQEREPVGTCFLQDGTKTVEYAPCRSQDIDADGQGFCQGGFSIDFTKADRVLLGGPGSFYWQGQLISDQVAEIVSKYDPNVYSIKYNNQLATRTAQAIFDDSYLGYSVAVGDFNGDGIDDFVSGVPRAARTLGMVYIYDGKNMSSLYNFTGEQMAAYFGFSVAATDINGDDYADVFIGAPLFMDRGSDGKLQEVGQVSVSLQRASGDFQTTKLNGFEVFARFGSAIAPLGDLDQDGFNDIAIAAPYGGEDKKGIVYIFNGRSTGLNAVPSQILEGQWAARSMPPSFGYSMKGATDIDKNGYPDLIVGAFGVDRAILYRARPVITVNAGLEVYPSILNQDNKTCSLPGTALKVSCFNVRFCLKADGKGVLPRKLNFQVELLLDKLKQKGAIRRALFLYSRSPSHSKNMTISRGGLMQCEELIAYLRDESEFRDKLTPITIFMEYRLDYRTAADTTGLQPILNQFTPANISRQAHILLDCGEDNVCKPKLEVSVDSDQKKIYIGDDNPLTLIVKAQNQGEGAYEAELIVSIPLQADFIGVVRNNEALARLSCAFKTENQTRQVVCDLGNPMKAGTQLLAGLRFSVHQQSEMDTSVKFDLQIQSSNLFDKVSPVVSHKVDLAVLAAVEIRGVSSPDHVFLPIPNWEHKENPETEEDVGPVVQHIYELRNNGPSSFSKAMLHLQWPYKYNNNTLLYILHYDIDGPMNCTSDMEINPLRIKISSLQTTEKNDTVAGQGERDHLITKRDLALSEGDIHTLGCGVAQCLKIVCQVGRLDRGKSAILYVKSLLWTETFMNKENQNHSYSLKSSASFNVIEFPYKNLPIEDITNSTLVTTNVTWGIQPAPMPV
Chain of αvβ1 (P05556 21-728 limits assumed): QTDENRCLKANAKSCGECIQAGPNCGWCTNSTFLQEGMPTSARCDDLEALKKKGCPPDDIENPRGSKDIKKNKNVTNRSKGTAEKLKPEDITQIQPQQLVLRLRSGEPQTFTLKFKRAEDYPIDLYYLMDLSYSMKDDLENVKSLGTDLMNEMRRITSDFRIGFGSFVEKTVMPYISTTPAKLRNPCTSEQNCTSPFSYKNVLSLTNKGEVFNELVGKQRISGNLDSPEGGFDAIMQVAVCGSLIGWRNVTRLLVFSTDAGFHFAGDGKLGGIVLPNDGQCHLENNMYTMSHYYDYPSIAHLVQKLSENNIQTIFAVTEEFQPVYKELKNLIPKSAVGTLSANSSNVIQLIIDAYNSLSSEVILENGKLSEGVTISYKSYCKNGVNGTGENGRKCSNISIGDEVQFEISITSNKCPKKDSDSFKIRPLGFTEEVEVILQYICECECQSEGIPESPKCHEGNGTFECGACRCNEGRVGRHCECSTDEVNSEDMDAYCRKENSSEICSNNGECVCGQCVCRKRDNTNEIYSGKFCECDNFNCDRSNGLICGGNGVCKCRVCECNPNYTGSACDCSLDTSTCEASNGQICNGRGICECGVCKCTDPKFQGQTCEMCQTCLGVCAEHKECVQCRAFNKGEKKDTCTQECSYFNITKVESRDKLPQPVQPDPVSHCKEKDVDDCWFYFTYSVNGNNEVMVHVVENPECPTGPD
Chain of αvβ6 (P06756 31-992 limits assumed): as the sequence (P06756 31-992 limits assumed) above
Chain of αvβ6 (P18564 22-707 limits assumed): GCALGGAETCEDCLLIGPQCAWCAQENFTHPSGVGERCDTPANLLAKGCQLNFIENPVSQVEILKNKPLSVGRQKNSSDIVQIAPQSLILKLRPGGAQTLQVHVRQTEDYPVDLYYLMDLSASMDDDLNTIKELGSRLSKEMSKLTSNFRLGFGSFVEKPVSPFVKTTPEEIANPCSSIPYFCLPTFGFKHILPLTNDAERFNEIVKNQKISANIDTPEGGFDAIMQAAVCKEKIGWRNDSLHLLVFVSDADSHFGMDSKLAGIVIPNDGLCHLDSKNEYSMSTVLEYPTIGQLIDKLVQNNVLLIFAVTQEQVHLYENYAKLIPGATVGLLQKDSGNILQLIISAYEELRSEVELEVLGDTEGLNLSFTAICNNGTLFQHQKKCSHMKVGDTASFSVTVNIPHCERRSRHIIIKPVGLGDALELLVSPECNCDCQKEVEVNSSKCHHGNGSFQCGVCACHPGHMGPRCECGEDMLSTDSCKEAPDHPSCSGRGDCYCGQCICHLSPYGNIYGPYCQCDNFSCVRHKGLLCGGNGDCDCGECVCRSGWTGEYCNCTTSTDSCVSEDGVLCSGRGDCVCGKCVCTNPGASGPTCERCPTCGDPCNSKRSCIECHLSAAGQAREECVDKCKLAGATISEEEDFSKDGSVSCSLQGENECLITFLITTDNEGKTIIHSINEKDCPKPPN

In the case of `O=C(NC[C@@H](Nc1ccc(-c2ccccc2)nc1)C(=O)O)[C@@H]1CCCN(CCCc2ccc3c(n2)NCCC3)C1` [Compound 375], the IC50 on αvβ1 and at αvβ6 was less than 100 nM in each case.

In the case of `O=C(CC[C@H](NC(=O)C12CCC(CC1)CC2)C(=O)O)N[C@@H]1CCN(CCCCc2ccc3c(n2)NCCC3)C1` [Compound 426], the IC50 against αvβ1 and against αvβ6 was less than 100 nM throughout.

Consider `O=C(O)C[C@H](CO[C@@H]1CCCN(CCCc2ccc3c(n2)NCCC3)C1)c1ccccc1-c1ccccc1` [Compound 460], for which the IC50 against αvβ1 and on αvβ6 was more than 1000 nM each time.

`O=C(O)[C@H](CCO[C@@H]1CCCN(Cc2ccc3c(n2)NCCC3)C1)NC(=O)C12CCC(CC1)CC2` [Compound 397]: the IC50 was 100 to 1000 nM at αvβ1 and more than 1000 nM against αvβ6.

With `O=C(O)C[C@H](NC(=O)[C@@H]1CCCN(CCCc2ccc3c(n2)NCCC3)C1)c1ccc(F)c(C2CC2)c1` [Compound 244-A, 3-(3-cyclopropyl-4-fluorophenyl)-3-((R)-1-(3-(5,6,7,8-tetrahydro-1,8-naphthyridin-2-yl)propyl)piperidine-3-carboxamido)propanoic acid], the IC50 at αvβ1 and on αvβ6 was less than 100 nM throughout.

As to `O=C(O)C[C@H](NC(=O)[C@@H]1CCCN(CCCc2ccc3c(n2)NCCC3)C1)c1cccc(N2CC3CCC2CO3)c1` (single isomer, unassigned) [Compound 241-A], the IC50 at αvβ1 and on αvβ6 was less than 100 nM in each case.

Turning to `CN(C[C@@H]1CCCN(CCCc2ccc3c(n2)NCCC3)C1)[C@@H](CC(=O)O)c1ccccc1` [Compound 293, (S)-3-(methyl(((R)-1-(3-(5,6,7,8-tetrahydro-1,8-naphthyridin-2-yl)propyl)piperidin-3-yl)methyl)amino)-3-phenylpropanoic acid hydrochloride], the IC50 on αvβ1 and on αvβ6 was more than 1000 nM each time.

Regarding `C[C@@H]1[C@@H](C)OCCN1c1cccc([C@H](CC(=O)O)NC(=O)[C@@H]2CCCN(CCCc3ccc4c(n3)NCCC4)C2)c1` [Compound 585], the IC50 against αvβ1 and at αvβ6 was less than 100 nM in each case.

`O=C(O)C[C@H](NC(=O)[C@]1(F)CCCN(CCCc2ccc3c(n2)NCCC3)C1)c1ccccc1` [Compound 555]: the 50% inhibitory concentration (IC50) on αvβ1 and at αvβ6 was 100 to 1000 nM in each case.

As for `O=C(O)C[C@@H](NC(=O)[C@@H]1CCCN(CCCc2ccc3c(n2)NCCC3)C1)c1cccc(Oc2ccccc2)c1` [Compound 209-B, 3-(3-phenoxyphenyl)-3-((R)-1-(3-(5,6,7,8-tetrahydro-1,8-naphthyridin-2-yl)propyl)piperidine-3-carboxamido)propanoic acid], the concentration for half-maximal inhibition (IC50) against αvβ1 is more than 1000 nM; at αvβ6, 100 to 1000 nM.

In the case of `O=C(NC[C@@H](C(=O)O)c1ccc(F)c(-c2ccccc2)c1F)[C@@H]1CCCN(CCCc2ccc3c(n2)NCCC3)C1` [Compound 626], the IC50 against αvβ1 and on αvβ6 was less than 100 nM throughout.

Take `O=C(O)[C@H](CCO[C@@H]1CCCN(Cc2ccc3c(n2)NCCC3)C1)Nc1ncnc2ccccc12` [Compound 387]: the IC50 on αvβ1 is less than 100 nM; at αvβ6, 100 to 1000 nM.

Regarding `Cc1cc(C)n(-c2cccc([C@H](CNC(=O)[C@@H]3CCCN(CCCc4ccc5c(n4)NCCC5)C3)C(=O)O)c2)n1` [Compound 257-A, 2-(3-(3,5-dimethyl-1H-pyrazol-1-yl)phenyl)-3-((R)-1-(3-(5,6,7,8-tetrahydro-1,8-naphthyridin-2-yl)propyl)piperidine-3-carboxamido)propanoic acid], the IC50 at αvβ1 and against αvβ6 was less than 100 nM throughout.

As to `O=C(O)C[C@@H](CO[C@@H]1CCCN(CCc2ccc3c(n2)NCCC3)C1)c1ccccc1` [Compound 354], the IC50 against αvβ1 and at αvβ6 was more than 1000 nM each time.

For the compound `O=C(O)C[C@H](NC(=O)[C@@H]1CCCN(CCCc2ccc3c(n2)NCCC3)C1)c1cccc2c1OCO2` [Compound 614], the IC50 against αvβ1 and on αvβ6 was less than 100 nM each time.

Regarding `O=C(O)C[C@H](CO[C@@H]1CCCN(CCCc2ccc3c(n2)NCCC3)C1)c1ccccc1` [Compound 297-A, 3-phenyl-4-(((R)-1-(3-(5,6,7,8-tetrahydro-1,8-naphthyridin-2-yl)propyl)piperidin-3-yl)oxy)butanoic acid], the IC50 at αvβ1 and on αvβ6 was 100 to 1000 nM each time.

Regarding `O=C(NC[C@H](C(=O)O)c1ccccc1C1CC1)[C@@H]1CCCN(CCCc2ccc3c(n2)NCCC3)C1` [Compound 260-A, 2-(2-cyclopropylphenyl)-3-((R)-1-(3-(5,6,7,8-tetrahydro-1,8-naphthyridin-2-yl)propyl)piperidine-3-carboxamido)propanoic acid], the IC50 on αvβ1 and against αvβ6 was less than 100 nM each time.

Consider `O=C(NC[C@@H](C(=O)O)c1cc(F)cc(-c2cccc(F)c2)c1)[C@@H]1CCCN(CCCc2ccc3c(n2)NCCC3)C1` [Compound 636], for which the IC50 at αvβ1 and on αvβ6 was less than 100 nM each time.

As to `O=C(NC[C@H](Nc1cncc(-c2ccccc2)c1)C(=O)O)[C@@H]1CCCN(CCCc2ccc3c(n2)NCCC3)C1` [Compound 361], the IC50 against αvβ1 and against αvβ6 was less than 100 nM in each case.

Take `CC1(C)CN(c2cc(Cl)cc(C(CO[C@@H]3CCCN(CCCc4ccc5c(n4)NCCC5)C3)CC(=O)O)c2)CCO1` (stereo partly shown) [Compound 650]: the 50% inhibitory concentration (IC50) on αvβ1 and at αvβ6 was less than 100 nM each time.

Take `O=C(N[C@@H](CCO[C@@H]1CCCN(CCCc2ccc3c(n2)NCCC3)C1)C(=O)O)c1c(F)cccc1F` [Compound 468]: the IC50 against αvβ1 and on αvβ6 was less than 100 nM each time.

As for `Cc1csc2ncnc(N[C@H](CCO[C@@H]3CCCN(CCCc4ccc5c(n4)NCCC5)C3)C(=O)O)c12` [Compound 502], the IC50 against αvβ1 and against αvβ6 was less than 100 nM each time.

On to `O=C(O)C[C@H](CO[C@@H]1CCCN(CCCc2ccc3c(n2)NCCC3)C1)c1cc(F)cc(C2CC2)c1` [Compound 483], for which the IC50 against αvβ1 and at αvβ6 was less than 100 nM each time.

Turning to `C[C@H]1C[C@H](C(=O)NC[C@H](C(=O)O)c2cccc(-c3ccccc3)c2)CN(CCCc2ccc3c(n2)NCCC3)C1` [Compound 638], the IC50 at αvβ1 and at αvβ6 was less than 100 nM throughout.

With `O=C(O)[C@H](CCO[C@@H]1CCCN(CCCc2ccc3c(n2)NCCC3)C1)Nc1ncnc2cc(C(F)(F)F)ccc12` [Compound 475], the IC50 at αvβ1 and on αvβ6 was more than 1000 nM throughout.

Regarding `C[C@@H]1C[C@H](C(=O)NC[C@@H](C(=O)O)c2cccc(-c3ccccc3)c2)CN(CCCc2ccc3c(n2)NCCC3)C1` [Compound 642], the IC50 at αvβ1 and against αvβ6 was more than 1000 nM throughout.

For the compound `O=C(O)CC(CC(=O)N[C@@H]1CCN(C(=O)CCCc2ccc3c(n2)NCCC3)C1)c1ccccc1` (stereo partly shown) [Compound 524], the values for the concentration for half-maximal inhibition (IC50) against αvβ1 and at αvβ6 were less than 100 nM and 100 to 1000 nM, respectively.

Consider `O=C(O)C[C@H](O[C@@H]1CCCN(Cc2ccc3c(n2)NCCC3)C1)c1ccccc1` [Compound 392], for which the IC50 against αvβ1 and against αvβ6 was more than 1000 nM each time.

With `O=C(O)C[C@@H](CO[C@@H]1CCCN(CCCc2ccc3c(n2)NCCC3)C1)c1cccc([C@H]2CCOC2)c1` [Compound 507], the IC50 against αvβ1 and against αvβ6 was less than 100 nM each time.

As to `O=C(CC[C@H](NC(=O)[C@H]1CCCN1S(=O)(=O)c1ccccc1)C(=O)O)N[C@H]1CCN(CCCCc2ccc3c(n2)NCCC3)C1` [Compound 434], the IC50 against αvβ1 and against αvβ6 was less than 100 nM each time.

As for `C[C@@H]1CN(c2cccc([C@H](CC(=O)O)NC(=O)[C@@H]3CCCN(CCCc4ccc5c(n4)NCCC5)C3)c2)C[C@@H](C)O1` [Compound 618], the IC50 on αvβ1 and against αvβ6 was less than 100 nM throughout.

Turning to `O=C(O)C[C@H](NC(=O)[C@@H]1CCCN(CCCc2ccc3c(n2)NCCC3)C1)c1cccc2c1CCCO2` [Compound 216-A, 3-(chroman-5-yl)-3-((R)-1-(3-(5,6,7,8-tetrahydro-1,8-naphthyridin-2-yl)propyl)piperidine-3-carboxamido)propanoic acid], the IC50 was 100 to 1000 nM against αvβ1 and less than 100 nM at αvβ6.

On to `O=C(O)[C@@](O)(CO[C@@H]1CCCN(CCCCc2ccc3c(n2)NCCC3)C1)c1ccccc1` [Compound 454], for which the IC50 against αvβ1 and against αvβ6 was more than 1000 nM throughout.

In the case of `O=C(NC[C@@H](C(=O)O)c1cccc2n[nH]cc12)[C@@H]1CCCN(CCCc2ccc3c(n2)NCCC3)C1` [Compound 319], the IC50 against αvβ1 and against αvβ6 was less than 100 nM each time.

For the compound `O=C(O)C[C@@H](CO[C@@H]1CCCN(Cc2ccc3c(n2)NCCC3)C1)c1ccccc1` [Compound 355], the IC50 against αvβ1 is 100 to 1000 nM; against αvβ6, more than 1000 nM.

Turning to `O=C(NC[C@H](C(=O)O)c1cccc(Br)c1)[C@@H]1CCCN(CCCc2ccc3c(n2)NCCC3)C1` [Compound 303], the 50% inhibitory concentration (IC50) on αvβ1 and against αvβ6 was less than 100 nM throughout.

`CC1(C)COCCN1c1cccc([C@H](CC(=O)O)NC(=O)[C@@H]2CCCN(CCCc3ccc4c(n3)NCCC4)C2)c1` [Compound 235, (S)-3-(3-(3,3-dimethylmorpholino)phenyl)-3-((R)-1-(3-(5,6,7,8-tetrahydro-1,8-naphthyridin-2-yl)propyl)piperidine-3-carboxamido)propanoic acid]: the IC50 at αvβ1 and against αvβ6 was less than 100 nM throughout.

Turning to `O=C(N[C@H](CCO[C@@H]1CCCN(CCCc2ccc3c(n2)NCCC3)C1)C(=O)O)c1ccccc1` [Compound 479], the IC50 at αvβ1 and at αvβ6 was 100 to 1000 nM each time.
